According to PubChem BioAssay AID226 (DTP/NCI, 2004):
Values joined by “and” are separate entries in the source; they are usually repeats but may differ in a detail not shown here. Identical values can stand only once. Inconclusive results and toxic doses are left out.

Tested on: B6C3F1 mice, intracerebral ependymoblastoma, median survival T/C
Assay: NCI In Vivo Anticancer Drug Screen. Data for tumor model Ependymoblastoma (intracerebral) in B6C3F1 mice
Settings: endpoint: median survival time, higher = longer survival
Procedure: The antitumor activity of compounds was measured in mice bearing transplantable tumors. Survival or tumor size were measured and the results are expressed as the measurement made in the treated group (T) divided by the measurement made in the vehicle treated control group (C). The tumor model used in this assay is Ependymoblastoma (intracerebral) in B6C3F1 mice

[1] = dose: 40.0 mg/kg/injection, schedule: Q01DX001 (ip), vehicle: saline

`CC(C)c1cc(C(=O)O)c(O)c(C(C)C)c1.CC(C)c1cc(C(=O)O)c(O)c(C(C)C)c1.[Cu]` was tested, and the T/C (dose: 6.25 mg/kg/injection, schedule: Q01DX005 (ip), vehicle: saline with Tween-80) was 103 % of control and the T/C (dose: 12.5 mg/kg/injection, schedule: Q01DX005 (ip), vehicle: saline with Tween-80) was 103 % of control.

With `COS(C)(=O)=O` the T/C (dose: 16.0 mg/kg/injection, schedule: Q01DX005 (ip), vehicle: saline) was 118 % of control, the T/C (dose: 32.0 mg/kg/injection, schedule: Q01DX005 (ip), vehicle: saline) was 102 % of control and the T/C (dose: 64.0 mg/kg/injection, schedule: Q01DX005 (ip), vehicle: saline) was 100 % of control.

`CN(N=O)C(N)=O` was tested, and the T/C (dose: 0.5 mg/kg/injection, schedule: Q01DX005 (ip), vehicle: saline + alcohol) was 98 % of control and 101 % of control and 107 % of control, the T/C (dose: 1.56 mg/kg/injection, schedule: Q01DX009 (ip), vehicle: saline) was 161 % of control and the T/C (dose: 2.0 mg/kg/injection, schedule: Q#A X002 (ip), vehicle: saline + alcohol) was 115 % of control. For the same compound, the T/C (dose: 3.12 mg/kg/injection, schedule: Q01DX009 (ip), vehicle: saline) was 161 % of control, the T/C (dose: 4.0 mg/kg/injection, schedule: Q01DX001 (ip), vehicle: saline + alcohol) was 118 % of control and 120 % of control and the T/C (dose: 4.0 mg/kg/injection, schedule: Q01DX005 (oral), vehicle: saline + alcohol) was 150 % of control. The T/C (dose: 4.0 mg/kg/injection, schedule: Q## X006 (ip), vehicle: saline + alcohol) was 156 % of control, the T/C (dose: 4.0 mg/kg/injection, schedule: Q#A X002 (ip), vehicle: saline + alcohol) was 113 % of control and the T/C (dose: 6.25 mg/kg/injection, schedule: Q01DX009 (ip), vehicle: saline) was 164 % of control. For the same compound, the T/C (dose: 8.0 mg/kg/injection, schedule: Q01DX001 (ip), vehicle: saline + alcohol) was 121 % of control, the T/C (dose: 8.0 mg/kg/injection, schedule: Q## X004 (ip), vehicle: saline + alcohol) was 150 % of control and the T/C (dose: 8.0 mg/kg/injection, schedule: Q## X006 (ip), vehicle: saline + alcohol) was 156 % of control. The T/C (dose: 10.0 mg/kg/injection, schedule: Q01DX001 (ip), vehicle: saline + alcohol) was 157 % of control, the T/C (dose: 16.0 mg/kg/injection, schedule: Q01DX001 (oral), vehicle: saline + alcohol) was 123 % of control and the T/C (dose: 16.0 mg/kg/injection, schedule: Q01DX005 (ip), vehicle: Klucel (hydroxypropylcellulose) (HPC)) was 118 % of control. The T/C (dose: 16.0 mg/kg/injection, schedule: Q01DX005 (oral), vehicle: saline + alcohol) was 150 % of control, the T/C (dose: 16.0 mg/kg/injection, schedule: Q## X006 (ip), vehicle: saline + alcohol) was 162 % of control and the T/C (dose: 20.0 mg/kg/injection, schedule: Q01DX001 (ip), vehicle: saline + alcohol) was 157 % of control. For the same compound, the T/C (dose: 32.0 mg/kg/injection, schedule: Q01DX001 (ip), vehicle: saline + alcohol) was 116 % of control, the T/C (dose: 32.0 mg/kg/injection, schedule: Q01DX001 (oral), vehicle: saline + alcohol) was 118 % of control and the T/C (dose: 32.0 mg/kg/injection, schedule: Q01DX005 (oral), vehicle: saline + alcohol) was 94 % of control. The T/C (dose: 32.0 mg/kg/injection, schedule: Q## X004 (ip), vehicle: saline + alcohol) was 178 % of control, the T/C (dose: 40.0 mg/kg/injection, schedule: Q01DX001 (ip), vehicle: saline + alcohol) was 161 % of control and the T/C [1] was 122 % of control. The T/C (dose: 64.0 mg/kg/injection, schedule: Q01DX001 (oral), vehicle: saline + alcohol) was 111 % of control, the T/C (dose: 80.0 mg/kg/injection, schedule: Q01DX001 (ip), vehicle: saline + alcohol) was 183 % of control and the T/C (dose: 128.0 mg/kg/injection, schedule: Q01DX001 (oral), vehicle: saline + alcohol) was 107 % of control and 121 % of control. For the same compound, the T/C (dose: 256.0 mg/kg/injection, schedule: Q01DX001 (oral), vehicle: saline + alcohol) was 112 % of control.

With `[N-]=[N+]=CC(=O)CCC(N)C(=O)O` (stereo not drawn) the T/C (dose: 0.05 mg/kg/injection, schedule: Q01DX005 (ip), vehicle: saline) was 111 % of control, the T/C (dose: 0.06 mg/kg/injection, schedule: Q01DX005 (ip), vehicle: saline) was 93 % of control and 117 % of control and the T/C (dose: 0.1 mg/kg/injection, schedule: Q01DX005 (ip), vehicle: saline) was 97 % of control. For the same compound, the T/C (dose: 0.12 mg/kg/injection, schedule: Q01DX005 (ip), vehicle: saline) was 111 % of control and 114 % of control and the T/C (dose: 0.2 mg/kg/injection, schedule: Q01DX005 (ip), vehicle: saline) was 122 % of control.

`Cn1cnc([N+](=O)[O-])c1Sc1nc(N)nc2c1ncn2C1OC(CO)C(O)C1O` (stereo not drawn) was tested, and the T/C (dose: 6.25 mg/kg/injection, schedule: Q01DX005 (ip), vehicle: suspension in saline) was 109 % of control, the T/C (dose: 12.5 mg/kg/injection, schedule: Q01DX005 (ip), vehicle: suspension in saline) was 115 % of control and the T/C (dose: 25.0 mg/kg/injection, schedule: Q01DX005 (ip), vehicle: suspension in saline) was 107 % of control.

With `O=P1(N(CCCl)CCCl)NC(OO)CCO1` (stereo not drawn) the T/C [1] was 102 % of control, the T/C (dose: 80.0 mg/kg/injection, schedule: Q01DX001 (ip), vehicle: saline) was 108 % of control and the T/C (dose: 160.0 mg/kg/injection, schedule: Q01DX001 (ip), vehicle: saline) was 113 % of control.

`CC(=O)NNC(=O)c1ccccn1` was tested, and the T/C (dose: 100.0 mg/kg/injection, schedule: Q01DX005 (ip), vehicle: Klucel (hydroxypropylcellulose) (HPC)) was 101 % of control and 110 % of control, the T/C (dose: 200.0 mg/kg/injection, schedule: Q01DX005 (ip), vehicle: Klucel (hydroxypropylcellulose) (HPC)) was 92 % of control and 90 % of control and the T/C (dose: 400.0 mg/kg/injection, schedule: Q01DX005 (ip), vehicle: Klucel (hydroxypropylcellulose) (HPC)) was 95 % of control and 103 % of control.

In the case of `O=NN(CCCl)C(=O)NC1OC(CO)C(O)C(O)C1O` (stereo not drawn), the T/C (dose: 0.31 mg/kg/injection, schedule: Q01DX009 (ip), vehicle: saline) is reported as 104 % of control, the T/C (dose: 0.63 mg/kg/injection, schedule: Q01DX009 (ip), vehicle: saline) is reported as 115 % of control and the T/C (dose: 1.0 mg/kg/injection, schedule: Q01DX005 (ip), vehicle: saline) is reported as 119 % of control. The T/C (dose: 2.0 mg/kg/injection, schedule: Q01DX005 (ip), vehicle: saline) was 113 % of control, the T/C (dose: 4.0 mg/kg/injection, schedule: Q01DX001 (ip), vehicle: saline) was 108 % of control and the T/C (dose: 4.0 mg/kg/injection, schedule: Q01DX005 (ip), vehicle: saline) was 122 % of control. For the same compound, the T/C (dose: 8.0 mg/kg/injection, schedule: Q01DX001 (ip), vehicle: saline) was 105 % of control, the T/C (dose: 16.0 mg/kg/injection, schedule: Q01DX001 (ip), vehicle: saline) was 105 % of control and the T/C (dose: 32.0 mg/kg/injection, schedule: Q01DX001 (ip), vehicle: saline) was 100 % of control. The T/C (dose: 64.0 mg/kg/injection, schedule: Q01DX001 (ip), vehicle: saline) was 108 % of control and the T/C (dose: 128.0 mg/kg/injection, schedule: Q01DX001 (ip), vehicle: saline) was 94 % of control.
